Measured values reported in patent US10758513B2, “Modulators of mitochondrial protein import” (THE REGENTS OF THE UNIVERSITY OF CALIFORNIA, priority 2011, dated 2020).

Tests used:
Erv1 = target: T1, Erv1 (Saccharomyces cerevisiae, UniProt P27882); assay: In vitro Erv1 oxidase activity, Amplex Red-HRP assay; assay type: biochemical, yeast; conditions: 100 μM
T1 construct: made in house
T1 sequence (P27882 1-189): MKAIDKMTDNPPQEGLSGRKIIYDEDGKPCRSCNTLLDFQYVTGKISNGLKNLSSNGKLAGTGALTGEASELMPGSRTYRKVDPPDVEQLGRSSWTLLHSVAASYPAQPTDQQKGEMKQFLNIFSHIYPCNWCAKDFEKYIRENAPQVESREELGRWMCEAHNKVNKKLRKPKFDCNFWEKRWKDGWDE
Procedure: The primary chemical screen used fresh recombinant Erv1 (in buffer 30 mM Hepes, pH 7.4, 100 mM NaCl, 1 mM EDTA) at a concentration of 10 μM, which was expressed as described previously. […] A Biomek FX (Beckman Coulter) was used to pin transfer 0.5 μl of compound from 1 mM stock or DMSO to respective wells. Approximate screening
concentration was 12.5 μM. After completed compound transfer, all plates were incubated at 25° C. in a humidified incubator for 1 hour. A Titertek multidrop was used to dispense 15 μl of Amplex Red-horseradish peroxidase (HRP) (Sigma) mix into all wells of the 384-well plate. The final concentration of Amplex Red and HRP were 46 μM and 0.092 U/ml, respectively. The Amplex Red-HRP solution was shielded from light during the entire experiment. The plates were incubated for an additional 10 min and then 15 μl of the substrate DTT (20 μM) was added to initiate the reduction of 02 to H2O2. […] Plates were then read at an endpoint using an excitation wavelength of 545 nm and an emission wavelength of 590 nm. […]
H2O2 production was measured using a standard fluorometric assay with Amplex Red and horseradish peroxidase (HRP). […] Fluorescence intensity was measured and reactions that were inhibited by more than 50% were picked as potential Erv1 inhibitors and selected for secondary analysis.

[1] = tested on: tim10-1 tim9S mitochondria; assay: In vitro import of radiolabeled precursors into tim10-1 tim9S mitochondria; assay type: biochemical, yeast; conditions: SAR study
Procedure: Prior to import into purified mitochondria, ^35S-methionine and cysteine labeled proteins were generated with TNT Quick Coupled Transcription/Translation kits (Promega) and plasmids carrying the gene of interest. Transcription of genes was driven by either a T7 or SP6 promoter. Import reactions were conducted according to established methods. After frozen mitochondria aliquots were thawed and added to the import buffer at a final concentration of 100 μg/mL, drug or DMSO vehicle was added as indicated. A final vehicle concentration of 1% was used in all experiments. Following 15 minute incubation at 25° C., import reactions were initiated by the addition of […] of translation mix. Aliquots were removed at intervals during the reaction timecourse and import was terminated with either cold buffer, 25 μg/mL trypsin, or a combination of both. If trypsin was added to digest unimported precursor protein, soybean trypsin inhibitor (STI) was subsequently added in excess after 15 minute incubation on ice. After a final recovery of by centrifugation (8,000×g, 5 minutes), mitochondria were disrupted in Laemmli sample buffer. Imports of membrane proteins (AAC, PiC, Tom40, Tim22, and Tim23) included a carbonate extraction step to remove proteins that had not inserted into the membrane (Koehler C M, et al. (1998), Science 279:369-373). Samples from import reaction time points were resolved by SDS polyacrylamide gel electrophoresis (SDSPAGE) and gels were dried prior to exposing to film.

[2] = tested on: tim10-1 tim9S mitochondria; assay: Membrane potential with rhodamine 123; assay type: biochemical, yeast; conditions: 25 μM MitoBloCK-1; CCCP as control
Procedure: Membrane potential measurement assays were conducted with a SPEX spectrofluorometer system (HORIBA Jobin Yvon) with a magnetically stirred cuvette held at 25° C. The quenching of rhodamine 123 fluorescence (Em, =530 nm and Ex=485 nm) was used as previously described (9) to detect changes in mitochondrial membrane potential. Purified tim10-1 tim9S mitochondrial aliquots were thawed and resuspended in respiration buffer (0.65 M mannitol, 0.3 mM EGTA, 3 mm tris-phosphate, 10 mM tris-maleate, pH 6.75). Trials were started by adding 100 nM of rhodamine 123 to respiration buffer. After a period of signal stabilization, mitochondria were added to a concentration of 100 μg/mL. Either drug or DMSO was then added to a final vehicle concentration of 1% following the establishment of baseline quenched fluorescence. Finally, mitochondria were uncoupled with 3 μM CCCP.

[3] = tested on: tim10-1 tim9S mitochondria; assay: Respiration (oxygen electrode) of tim10-1 tim9S mitochondria; assay type: biochemical, yeast; conditions: NADH; 25 μM MitoBloCK-1; CCCP as control
Procedure: Oxygen consumption of […] mitochondria was measured using methods previously described (8). Briefly, purified […] mitochondria aliquots (25 mg/mL) were thawed on ice and tested within 2 hours. A Clark-type oxygen electrode in a stirred, thermostatically controlled 1.5-ml chamber at 25° C. (Oxytherm; Hansatech) facilitated measurement. […] Consumption rate was monitored for approximately 2 min.

WT mitochondria = assay: Respiration of WT mitochondria with NADH (oxygen electrode); assay type: biochemical, yeast; conditions: 25 μM MitoBloCK-6; CCCP control
Procedure: Oxygen consumption of WT mitochondria was measured using methods previously described (Claypool et al., 2008a). Briefly, purified WT mitochondria (25 mg/ml) were thawed on ice and tested within 2 hours. Oxygen consumption assays were performed with a Clark-type oxygen electrode in a stirred thermostatically controlled 1.5-ml chamber at 25° C. (Oxytherm, Hansatech). […] Consumption rate was monitored for approximately 2 min. […] Consumption rate was monitored for approximately 3 mins. MitoBloCK-6, SAR compounds, or DMSO was then added and respiration measured for another 3 mins. Uncoupled respiration was achieved as described above.

HeLa cells [4] = assay: Mitochondrial morphology in HeLa cells; assay type: cell-based; conditions: 50 μM 12-16 h, up to 100 μM, 20 μM CCCP control
Procedure: (A) HeLa cells were transiently transfected with Su9-EGFP. Following transfection, cells were treated for 12 hr with 50 μM MitoBloCK-6 or control 1% DMSO. As a positive control, cells were incubated with 20 μM CCCP to dissipate the membrane potential. Mitochondria were also stained with 10 μM MitoTracker Red. Mitochondrial morphology was assessed by fluorescence microscopy and the Mitotracker Red and GFP channels were superimposed (Merge). (B) The effect of MitoBloCK-6 on the viability of HeLa cells was assessed with a MTT-based toxicology assay. Cultured cells were treated for 12-16 hr with DMSO or 50 μM and 100 μM MitoBloCK-6. Bars display mean cell viability where 100% was defined as signal from untreated samples. Error bars display standard error of the mean (n=5). (C) The release of cyt c was investigated. Cells were treated with 1% DMSO or 50 μM MitoBloCK-6 for 12-16 hr and fractionated into mitochondrial (M) and cytosolic (C) fractions. Release of mitochondrial proteins was assessed by immunoblot analysis with antibodies against cyt c, Complex V (ATP synthase subunit alpha), pyruvate dehydrogenase (PDH), and cytosolic GAPDH. Treatment with 1 μM staurosporine for 4 hr induced apoptosis and was included as a positive control.
For microscopy experiments, HeLa or HEK293 cells were transiently transfected with Su9-EGFP (Lipofectamine, Invitrogen) at 80% confluency. […]

succinate dehydrogenase = target: T2, succinate dehydrogenase (Saccharomyces cerevisiae, UniProt Q00711); assay: Succinate dehydrogenase activity in WT mitochondria (oxygen electrode); assay type: biochemical, yeast; conditions: 25 or 50 μM MitoBloCK-6; 20 mM malonate control
T2 construct: endogenous in cells; host or cells: mitochondria isolated from WT yeast
T2 sequence (Q00711 29-640): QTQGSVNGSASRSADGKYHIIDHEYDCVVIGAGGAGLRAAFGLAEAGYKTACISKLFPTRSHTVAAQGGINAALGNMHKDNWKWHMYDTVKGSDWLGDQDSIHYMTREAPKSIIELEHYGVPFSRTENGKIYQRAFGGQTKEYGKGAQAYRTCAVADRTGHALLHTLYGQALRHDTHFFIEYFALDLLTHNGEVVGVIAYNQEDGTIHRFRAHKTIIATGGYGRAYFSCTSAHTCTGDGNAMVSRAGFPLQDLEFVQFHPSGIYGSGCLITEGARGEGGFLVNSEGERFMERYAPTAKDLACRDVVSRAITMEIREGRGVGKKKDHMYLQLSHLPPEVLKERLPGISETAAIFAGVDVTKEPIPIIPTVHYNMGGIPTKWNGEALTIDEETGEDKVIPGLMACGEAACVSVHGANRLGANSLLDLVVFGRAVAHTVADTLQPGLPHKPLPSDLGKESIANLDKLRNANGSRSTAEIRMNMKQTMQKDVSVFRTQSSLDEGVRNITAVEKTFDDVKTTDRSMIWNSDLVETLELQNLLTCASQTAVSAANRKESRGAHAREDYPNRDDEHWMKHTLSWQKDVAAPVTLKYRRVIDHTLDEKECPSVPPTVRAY
T2 sequence (P21801 21-266 partner): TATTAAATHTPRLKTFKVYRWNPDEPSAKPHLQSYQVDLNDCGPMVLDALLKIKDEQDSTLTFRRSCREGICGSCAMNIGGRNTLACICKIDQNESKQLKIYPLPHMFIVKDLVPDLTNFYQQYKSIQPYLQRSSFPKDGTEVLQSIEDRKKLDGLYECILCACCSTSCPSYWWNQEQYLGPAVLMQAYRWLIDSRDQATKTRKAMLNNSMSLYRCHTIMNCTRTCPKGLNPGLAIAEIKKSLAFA
T2 sequence (P33421 51-198 partner): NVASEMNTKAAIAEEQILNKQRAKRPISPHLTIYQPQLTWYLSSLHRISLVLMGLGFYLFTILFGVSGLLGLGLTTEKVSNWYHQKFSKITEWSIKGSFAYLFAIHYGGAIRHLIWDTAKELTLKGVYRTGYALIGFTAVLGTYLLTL
T2 sequence (P37298 32-181 partner): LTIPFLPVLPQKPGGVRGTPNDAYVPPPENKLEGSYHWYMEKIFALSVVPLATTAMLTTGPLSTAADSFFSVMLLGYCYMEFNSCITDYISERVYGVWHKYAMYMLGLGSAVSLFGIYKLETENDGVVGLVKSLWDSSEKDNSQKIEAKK
Procedure: (A) 160 μM insulin was reacted with 3 units of PDI in the presence of buffer, 1 mM bacitracin, or MitoBloCK-6 (MB-6). Reduction of insulin chains was initiated by the addition of DTT. The samples were incubated for 30 min at room temperature and then the turbidity was measured at a wavelength of 630 nm using a Bio-Tek plate-reader. (B) Succinate dehydrogenase activity was measured in WT mitochondria using a Clark-type oxygen electrode. Respiration was initiated with 10 mM succinate and, when steady-state respiration was established, 25 or 50 μM MitoBloCK-6, 50 μM ES-1, 50 μM ES-2, or 1% DMSO was added. Controls included 20 mM malonate that inhibits succinate dehydrogenase activity and CCCP that uncouples electron transport. The rate is reported as nmol O2 consumed/sec.
Oxygen consumption of WT mitochondria was measured using methods previously described (Claypool et al., 2008a). Briefly, purified WT mitochondria (25 mg/ml) were thawed on ice and tested within 2 hours. […] Consumption rate was monitored for approximately 2 min. MitoBloCK-6 or DMSO was then added to a final vehicle concentration of 1% and respiration was measured for another approximately 1.5 min. […] Consumption rate was monitored for approximately 3 mins. MitoBloCK-6, SAR compounds, or DMSO was then added and respiration measured for another 3 mins. […]

HeLa cells [5] = assay: Cyt c release assay by cell fractionation in HeLa cells; assay type: cell-based; conditions: 50 μM MitoBloCK-6 12-16 h, 1 μM staurosporine 4 h
Procedure: For cyt c release assays, a cell fractionation kit (MitoSciences) was used. Briefly, HeLa or HEK293 cells were grown in 10 cm^2 dishes to 80% confluency and then cells were treated with DMSO or MitoBloCK-6 in complete medium for 12-16 h. […] Cells were fractionated to obtain cytosolic and mitochondrial fractions; 100 μg of each fraction was analyzed by SDS-PAGE. Blots were probed with ApoTrack cyt c apoptosis antibody cocktail (MitoSciences).

zebrafish embryos = assay: Zebrafish embryo development; assay type: in vivo
Procedure: Zebrafish used for o-dianisidine staining of red blood cells in DMSO and MitoBloCK-6 treated fish were albino lines generated from crosses of TL and TU fish. Line AB were injected with the ALR morpholino. Lines were maintained in a 14-hr light/10-hr dark cycle and mated for one hour to obtain synchronized embryonic development. […] Following treatment, embryos were imaged using a Leica MZ16F fluorescent stereoscope (TexasRed filter set) at 5× magnification. […] Embryos were allowed to mature to 2 dpf and then imaged like the MitoBloCK-6 treated embryos; embryos were imaged at day 2 because of concerns with morpholino dilution. Images were resized to 300 dpi without resampling using Adobe Photoshop software.

**Q.** Which Erv1 activity (Erv1) does the source give for O=Cc1cc(Cl)cc(Cl)c1O [3,5-dichlorosalicylaldehyde, reference compound] here?
**A.** did not inhibit Erv1 activity

**Q.** How did the “inhibition of import of AAC by analogs” value [1] turn out when Cc1ccc2c(c1)C1CCC/C(=N\NC(N)=S)C1N2C (stereo not shown) [Analog B] was run?
**A.** Analog D was the only compound to inhibit import of AAC

**Q.** Which “rhodamine 123 fluorescence (membrane potential)” value [2] does the source give for N#CC(C#N)=NNc1cccc(Cl)c1 [CCCP, carbonyl cyanide m-chlorophenylhydrazone, reference compound] here?
**A.** sharp increase in fluorescence

**Q.** And the rate of respiration [3]?
**A.** respiration increased drastically

**Q.** And the “oxygen consumption rate (NADH respiration)” value (WT mitochondria)?
**A.** respiration increased drastically

**Q.** What about the “mitochondrial network / morphology” value (HeLa cells [4]) of the same molecule?
**A.** caused the mitochondrial network to collapse around the nucleus

**Q.** How did the “succinate dehydrogenase activity (oxygen consumption rate with succinate)” value (succinate dehydrogenase) turn out when O=C(O)CC(=O)O [malonate] was run?
**A.** disrupted

**Q.** For CN[C@@H]1C[C@H]2O[C@@](C)([C@@H]1OC)n1c3ccccc3c3c4c(c5c6ccccc6n2c5c31)C(=O)NC4 [staurosporine], which cyt c release (HeLa cells [5]) is on record?
**A.** showed cyt c release

**Q.** What does the source list for “ALR morpholino: ATG morpholino targeted to zebrafish ALR protein (GAGGGTTGCCAGATCTCTGTTAAAT) (all phosphorodiamidate morpholino (PMO)) [reference compound]”?
**A.** phenotypes of morpholino-injected embryos (zebrafish embryos; 4 ng injected in 1-cell embryos): identical to that of MitoBlock-6 exposure; decreased heart rate (zebrafish embryos; embryos treated with MitoBloCK-6 or ALR morpholino): 25%
